According to US20100048604A1, “Ligands for Aldoketoreductases” (priority 2004, published 2010):

Legend:
AKR1C1-AKR1C4 = experiment: Substrate tolerance and selectivity across the four human AKR1C isozymes; type: biochemical; conditions: AKR1C1-AKR1C4, purified enzymes, NADPH
Excerpt: AKR1C2 and AKR1C3 Selective Probes: Probes (5a-5i) were examined as substrates for the four purified human HSD isozymes (AKR1C1-AKR1C4) under standard assay conditions [catalytic quantities of enzyme, an excess of cofactor (NADPH)]. The initial reaction rates were used to derive standard kinetic parameters (kcat and Km, Materials and Methods).
Substrate tolerance of AKR1Cs: Isozyme Activity with 5a-5i: Activity of the second generation of fluorogenic substrates with the AKR1C isozymes was determined as follows. To a STARNA semi-micro fluorimeter cell (with 4 polished windows) was added 100 μL of 1 M potassium phosphate buffer (pH 6), 840 μL doubly deionized water, and 20 μL of 12.5 mM NADPH. After mixing the aqueous components thoroughly, 20 μL of acetonitrile was added as a cosolvent and mixed well. 20 μL of 2.5 mM second generation fluorogenic ketone in acetonitrile (5a-5i) was then added and mixed. 4 μL of undiluted AKR1C (provided generously by the Penning lab at concentrations of 2.5 mg/mL) were then added to the cuvette for a total of 10 μg purified enzyme in the 1 mL assay volume. Fluorescence arising from the respective alcohol reduction product was then monitored over the course of 5-10 minutes.
Binding constant and catalytic rates (Km and kcat) of the second generation of fluorogenic substrates was determined as follows. To a STARNA semi-micro fluorometer cell (with 4 polished windows) was added 100 μL of 1 M potassium phosphate buffer (pH 6), 840 μL doubly deionized water, and 20 AL of 12.5 mM NADPH. After mixing the aqueous components thoroughly, 20 μL of acetonitrile was added as a cosolvent and mixed well. […] Fluorescence arising from the respective alcohol reduction product was then monitored over the course of 3 minutes (Excitation and emission band pass slits both at 4 nm, lamp 700 V, λexc 410 nm, λem 510). The rate of product formation, expressed in units of nanomoles per minute, were calculated according to previously published procedures (Wierzchowski, J.; Dafeldecker, W. P.; Holmquist, B.; Vallee, B. L. Anal. Biochem. 1989, 178, 57-62): […]

panel of oxidoreductases = experiment: Enzymatic screening of probes 1-7 against a panel of oxidoreductases (enzymes other than 3α-HSDs); type: biochemical; conditions: 12 hour incubation, 30-50 μM substrate, pH 7, 250 μM NAD(P)H
Procedure: FIG. 4. Screening of probes 1-7 against a panel of oxidoreductases Percentage fluorescence increase after 12 hour incubation of 30-50 μM substrate, 100 mM phosphate buffer (pH 7), 250 μM NAD(P)H, and 100 nM enzyme. Substrates 1, 2, 3, and 4 monitored at λexc=340 nm, λem=440 nm. Substrates 5, 6, and 7 monitored at λexc=440 nm, λem=510 nm. 3HSD, 3α-hydroxysteroid dehydrogenase (PT, Pseudomonas testosteroni), HLAD, horse liver alcohol dehydrogenase, TBAD, Thermoanaerobium brockii alcohol dehydrogenase, BS 12HSD, Bacillus sp. 12α-hydroxysteroid dehydrogenase, ABAD, amyloid-β binding alcohol dehydrogenase (human), GDH, glycerol dehydrogenase, YADH, yeast alcohol dehydrogenase, LDH, lactate dehydrogenase.
Probes 1-7 (see FIG. 3) were subsequently tested against a collection of dehydrogenases in the presence of NAD(P)H; the extent of reduction was assessed by the measurement of fluorescence intensity at the emission maximum of each probe (FIG. 4). […]
Initial Screening with Fluorogenic Substrates: Screening of the first fluorogenic substrates for enzymatic activity has been described above. […] Formation of the alcohol reduction product was determined by reading the fluorescence arising from excitation at the corresponding alcohol at either 340 nm (27-30) or 440 nm (31-33).

## CC(=O)c1cc(=O)oc2c3c4c(cc12)CCCN4CCC3 [compound 5, 8-Acetyl-2,3,5,6-tetrahydro-1H,4H-11-oxa-3a-aza-benzo[de]anthracen-10-one]
AKR1C1-AKR1C4
  acceptance as substrate by the four human isozymes: all four human isozymes catalyzed the reduction
Panel of oxidoreductases
  reduction of probe by the other enzymes of the panel: No other enzymes examined in this assay catalyzed the reduction
